Results on 16 compounds are retold here after US10800792B2, “Inhibitors of Bruton's tyrosine kinase and method of their use” (JANSSEN PHARMACEUTICA NV, priority 2015, dated 2020).

The target of the assay is unphosphorylated-BTK kinase domain (UP-BTK), GST-tagged human BTK (389-659aa) (Homo sapiens (Human), UniProt Q06187). Briefly: BTK kinase Lanthascreen binding assay. As to conditions: unphosphorylated-BTK kinase domain, 50 nM Tracer 236, 60 minutes; pIC50 = negative log of the IC50 in molar. The gist of the method:
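Tracer-displacement binding assay against the non-phosphorylated enzyme, read by Lanthascreen. Reported: pIC50.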

Structures are written as SMILES.

Chain of unphosphorylated-BTK kinase domain (UP-BTK), GST-tagged human BTK (389-659aa) (Q06187 389-659): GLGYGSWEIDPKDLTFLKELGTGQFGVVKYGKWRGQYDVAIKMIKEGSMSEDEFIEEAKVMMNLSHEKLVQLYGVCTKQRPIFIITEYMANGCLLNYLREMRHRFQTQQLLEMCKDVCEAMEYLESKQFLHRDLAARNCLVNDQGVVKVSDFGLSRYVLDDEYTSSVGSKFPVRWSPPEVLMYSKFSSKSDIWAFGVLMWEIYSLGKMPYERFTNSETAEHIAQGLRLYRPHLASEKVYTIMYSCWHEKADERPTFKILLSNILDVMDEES

Take `C/C=C\C(=O)N1CCC[C@@H](NC(=O)c2sc3nccc4c3c2NC(=O)N4c2ccc(Oc3ccccc3)cc2C)C1` (single isomer, unassigned) [Example 475, (R,*Z)—N-(1-(But-2-enoyl)piperidin-3-yl)-5-(*R)-(2-methyl-4-phenoxyphenyl)-4-oxo-4,5-dihydro-3H-1-thia-3,5,8-triazaacenaphthylene-2-carboxamide]: the “BTK_I_binding pIC50” value stood at 6.1.

With `C/C=C\C(=O)N1CCC[C@@H](NC(=O)c2sc3nccc4c3c2NC(=O)N4c2ccc(Oc3ccccc3)cc2C)C1` (single isomer, unassigned) [Example 476, (R,*Z)—N-(1-(But-2-enoyl)piperidin-3-yl)-5-(*S)-(2-methyl-4-phenoxyphenyl)-4-oxo-4,5-dihydro-3H-1-thia-3,5,8-triazaacenaphthylene-2-carboxamide], the “BTK_I_binding pIC50” value amounted to 7.4.

On to `Cc1cc(Oc2ccccc2)ccc1N1C(=O)Nc2c(C(=O)NC3COCCN(C#N)C3)sc3nccc1c23` (single isomer, unassigned) [Example 485, N-(4-Cyano-1,4-oxazepan-6-yl)-5-(*S)-(2-methyl-4-phenoxyphenyl)-4-oxo-4,5-dihydro-3H-1-thia-3,5,8-triazaacenaphthylene-2-carboxamide], for which the “BTK_I_binding pIC50” value amounted to 7.9.

For `Cc1cc(Oc2ccccc2)ccc1N1C(=O)Nc2c(C(=O)N[C@@H]3CCCN(C(=O)/C=C/CN(C)C)C3)sc3nccc1c23` (single isomer, unassigned) [Example 488, (R,E)-N-(1-(4-(Dimethylamino)but-2-enoyl)piperidin-3-yl)-5-(*S)-(2-methyl-4-phenoxyphenyl)-4-oxo-4,5-dihydro-3H-1-thia-3,5,8-triazaacenaphthylene-2-carboxamide], the “BTK_I_binding pIC50” value is 7.2.

In the case of `Cc1cc(Oc2ccccc2)ccc1N1C(=O)Nc2c(C(=O)N[C@@H]3CCN(C(=O)/C(C#N)=C/C4CC4)C3)sc3nccc1c23` (single isomer, unassigned) [Example 491, (R,E)-N-(1-(2-Cyano-3-cyclopropylacryloyl)pyrrolidin-3-yl)-5-(*S)-(2-methyl-4-phenoxyphenyl)-4-oxo-4,5-dihydro-3H-1-thia-3,5,8-triazaacenaphthylene-2-carboxamide], the “BTK_I_binding pIC50” value was 7.6.

For the compound `CNC/C=C/C(=O)N1CC[C@@H](NC(=O)c2sc3nccc4c3c2NC(=O)N4c2ccc(Oc3ccccc3)cc2C)C1` (single isomer, unassigned) [Example 492, (R,E)-5-(*S)-(2-Methyl-4-phenoxyphenyl)-N-(1-(4-(methylamino)but-2-enoyl)pyrrolidin-3-yl)-4-oxo-4,5-dihydro-3H-1-thia-3,5,8-triazaacenaphthylene-2-carboxamide], the “BTK_I_binding pIC50” value stood at 8.0.

`Cc1cc(Oc2ccccc2)ccc1N1C(=O)Nc2c(C(=O)N[C@@H]3CCN(C)C3)sc3nccc1c23` (single isomer, unassigned) [Example 493, (R)-5-(*S)-(2-Methyl-4-phenoxyphenyl)-N-(1-methylpyrrolidin-3-yl)-4-oxo-4,5-dihydro-3H-1-thia-3,5,8-triazaacenaphthylene-2-carboxamide]: the “BTK_I_binding pIC50” value worked out at 6.9.

In the case of `Cc1cc(Oc2ccccc2)ccc1N1C(=O)Nc2c(C(=O)N[C@@H]3CCN(C(=O)CCS(C)(=O)=O)C3)sc3nccc1c23` (single isomer, unassigned) [Example 494, (R)-5-(*S)-(2-Methyl-4-phenoxyphenyl)-N-(1-(3-(methylsulfonyl)propanoyl)pyrrolidin-3-yl)-4-oxo-4,5-dihydro-3H-1-thia-3,5,8-triazaacenaphthylene-2-carboxamide], the “BTK_I_binding pIC50” value stood at 8.0.

Turning to `COCC(=O)N1CCC[C@@H](NC(=O)c2sc3nccc4c3c2NC(=O)N4c2ccc(Oc3ccccc3)cc2C)C1` (single isomer, unassigned) [Example 495, (R)—N-(1-(2-Methoxyacetyl)piperidin-3-yl)-5-(*S)-(2-methyl-4-phenoxyphenyl)-4-oxo-4,5-dihydro-3H-1-thia-3,5,8-triazaacenaphthylene-2-carboxamide], the “BTK_I_binding pIC50” value is 7.5.

Turning to `C=CC(=O)N1CCC[C@@H](NC(=O)c2sc3nccc4c3c2NC(=O)N4c2ccc(OC3CCC3)cc2C)C1` (single isomer, unassigned) [Example 501, (R)—N-(1-Acryloylpiperidin-3-yl)-5-(*S)-(4-cyclobutoxy-2-methylphenyl)-4-oxo-4,5-dihydro-3H-1-thia-3,5,8-triazaacenaphthylene-2-carboxamide], the “BTK_I_binding pIC50” value was determined as 7.9.

`Cc1cc(Oc2ccccc2)ccc1N1C(=O)Nc2c(C(=O)N[C@@H]3CCN(C(=O)/C=C/CN(C)C)C3)sc3nccc1c23` (single isomer, unassigned) [Example 502, (R,E)-N-(1-(4-(Dimethylamino)but-2-enoyl)pyrrolidin-3-yl)-5-(*S)-(2-methyl-4-phenoxyphenyl)-4-oxo-4,5-dihydro-3H-1-thia-3,5,8-triazaacenaphthylene-2-carboxamide]: the “BTK_I_binding pIC50” value is reported as 7.9.

Turning to `Cc1cc(Oc2ccccc2)ccc1N1C(=O)Nc2c(C(=O)N[C@@H]3CCCN(C(=O)/C=C/CO)C3)sc3nccc1c23` (single isomer, unassigned) [Example 503, (R,E)-N-(1-(4-Hydroxybut-2-enoyl)piperidin-3-yl)-5-(*S)-(2-methyl-4-phenoxyphenyl)-4-oxo-4,5-dihydro-3H-1-thia-3,5,8-triazaacenaphthylene-2-carboxamide], the “BTK_I_binding pIC50” value is reported as 7.8.

In the case of `Cc1cc(Oc2ccccc2)ccc1N1C(=O)Nc2c(C(=O)N[C@@H]3CCCN(C(=O)/C(C#N)=C/C4(C)COC4)C3)sc3nccc1c23` (single isomer, unassigned) [Example 509, (R,EZ)—N-(1-(2-Cyano-3-(3-methyloxetan-3-yl)acryloyl)piperidin-3-yl)-5-(*S)-(2-methyl-4-phenoxyphenyl)-4-oxo-4,5-dihydro-3H-1-thia-3,5,8-triazaacenaphthylene-2-carboxamide], the “BTK_I_binding pIC50” value was found to be 7.9.

`Cc1cc(Oc2ccccc2)ccc1N1C(=O)Nc2c(C(=O)N[C@@H]3CCN(C(=O)/C=C/CN)C3)sc3nccc1c23` (single isomer, unassigned) [Example 520, (R,E)-N-(1-(4-Aminobut-2-enoyl)pyrrolidin-3-yl)-5-(*S)-(2-methyl-4-phenoxyphenyl)-4-oxo-4,5-dihydro-3H-1-thia-3,5,8-triazaacenaphthylene-2-carboxamide]: the “BTK_I_binding pIC50” value amounted to 8.1.

Turning to `Cc1cc(Oc2ccccc2)ccc1N1C(=O)Nc2c(C(=O)N[C@@H]3CCN(C(=O)/C=C/CO)C3)sc3nccc1c23` (single isomer, unassigned) [Example 522, (R,E)-N-(1-(4-Hydroxybut-2-enoyl)pyrrolidin-3-yl)-5-(*S)-(2-methyl-4-phenoxyphenyl)-4-oxo-4,5-dihydro-3H-1-thia-3,5,8-triazaacenaphthylene-2-carboxamide], the “BTK_I_binding pIC50” value worked out at 8.0.

Take `CN[C@@H](C)C(=O)N1CCC[C@@H](NC(=O)c2sc3nccc4c3c2NC(=O)N4c2ccc(Oc3ccccc3)cc2C)C1` (single isomer, unassigned) [Example 524, 5-(*S)-(2-Methyl-4-phenoxyphenyl)-N—((R)-1-((S)-2-(methylamino)propanol)piperidin-3-yl)-4-oxo-4,5-dihydro-3H-1-thia-3,5,8-triazaacenaphthylene-2-carboxamide]: the “BTK_I_binding pIC50” value is 7.8.
